SMILES strings stand for the structures. A value given as a limit tells only on which side of the number the result lay.

Usually Ki stands for the equilibrium dissociation constant of an inhibitor or competing ligand from its target.

The experiment deals with Estrogen receptor beta (Mus musculus, UniProt O08537). Kind of experiment: Binding affinity to ERbeta receptor in mouse COS7 cells by competitive binding assay.
Estrogen receptor beta, sequence (O08537 whole entry): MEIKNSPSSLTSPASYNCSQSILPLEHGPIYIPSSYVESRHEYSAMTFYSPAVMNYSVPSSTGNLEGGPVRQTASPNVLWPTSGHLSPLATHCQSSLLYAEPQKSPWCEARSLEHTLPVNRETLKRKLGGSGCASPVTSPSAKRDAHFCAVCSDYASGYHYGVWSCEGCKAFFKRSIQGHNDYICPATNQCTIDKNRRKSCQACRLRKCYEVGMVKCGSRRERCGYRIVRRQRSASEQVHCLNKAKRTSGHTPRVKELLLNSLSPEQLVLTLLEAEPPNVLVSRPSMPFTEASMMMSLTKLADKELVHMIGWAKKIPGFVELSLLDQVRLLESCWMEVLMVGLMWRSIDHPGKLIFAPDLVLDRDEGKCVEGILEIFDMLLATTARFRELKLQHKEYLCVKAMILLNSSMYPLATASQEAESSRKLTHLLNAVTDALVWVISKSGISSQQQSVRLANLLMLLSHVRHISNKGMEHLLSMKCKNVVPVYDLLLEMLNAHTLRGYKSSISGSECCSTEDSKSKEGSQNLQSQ

Consider `Brc1cc2c(cc1[C@@H]1Nc3ccccc3[C@@H]3C=CC[C@@H]31)OCO2`, for which the Ki is more than 10 µM.

(Values after BindingDB's records for doi:10.1038/nchembio.168 (University of New Mexico Health Sciences Center, 2009).)
